Measured values taken from patent US20250339399A1, “SUPRAMOLECULAR SELF-ASSEMBLY SYSTEM” (Beijing Creatron Institute of Pharmaceutical Research Co., …, priority 2022, published 2025).

What was measured:
[1] = Guest molecule concentration after incubation in initial medium without polymer (Comparative Example 1); format: physicochemical; settings: 37° C., pH 2.0 hydrochloric acid
How it was run: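 Dissolved guest content measured by HPLC of centrifuged supernatants (37° C., 13000 rpm, 5 min) sampled at 0.5 h, 3 h and 6 h. Incubation was polymer-free at 37° C.±0.5° C. in buffers of pH 2.0-7.4; nominal loading was set by maximum clinical dose.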

[2] = Binary supramolecular self-assembly systems of polymer and target: guest concentration over incubation time (Comparative Example 2); format: physicochemical
Protocol: Experiments were conducted according to the steps in Comparative Example 1, and quantitative analysis was carried out using the analytical method for each target to investigate the regulation ability […] stacking.

[3] = Binary (carrier), ternary and quaternary supramolecular self-assembly systems of polymer, carrier building block and target: guest concentration over incubation time (Examples 1-56); format: physicochemical; settings: 6 h
How it was run: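 Targets were incubated at 37 °C in pH 2.0–7.4 buffers with 0.5% polymer alone or with carrier building blocks, after 0.5 h sonication for ternary systems, and shaken at 200 rpm. Samples at 0.5–6 h were centrifuged and diluted ≥10-fold, and dissolved target was quantified by HPLC; surfactant was added if needed.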

[4] = Comparative Example 3: systems with 10% (W/V) natural building block; format: physicochemical; settings: Comparative Example 3: 10% 313; 6 h
Protocol: An initial medium of each above target molecule was used to prepare a solution containing 10% Rubusoside A (313) or 10% (W/V) Mogroside V (319), the solution was sonicated at 37° C. to prepare a solution containing about 100 mg/mL building block 313 or 319 per 1 mL of the initial medium, the clear medium containing the natural building blocks was incubated in a 37° C. constant temperature air bath shaker for 1 hour, and subsequent operations and sample detection followed the steps of Comparative Examples 1 and 2. Considering that each natural building block had different UV absorption and was added at a high concentration, the more specific HPLC method was still used for quantitative determination on the solution concentration of each guest molecule, […].

[5] = 10% (W/V) Rubusoside A as building block; according to US2012/0121696A1; cited from earlier work

- Concentration of guest molecule measured after different incubated time ([1]; 0.5 h): 20500 ng/mL
- Concentration of guest molecule measured after different incubated time ([1]; 3 h): 5400 ng/mL
- Concentration of guest molecule measured after different incubated time ([1]; 6 h): 4200 ng/mL
- Concentration of the target in the solution measured after different incubation time ([2]; binary system with 0.5% polymer 101, incubation 0.5 h): 224300 ng/mL
- Concentration of the target in the solution measured after different incubation time ([2]; binary system with 0.5% polymer 101, incubation 3 h): 62200 ng/mL
- Concentration of the target in the solution measured after different incubation time ([2]; binary system with 0.5% polymer 101, incubation 6 h): 54400 ng/mL
- Concentration of the target in the solution measured after different incubation time ([2]; binary system with 0.5% polymer 102, incubation 0.5 h): 19600 ng/mL
- Concentration of the target in the solution measured after different incubation time ([2]; binary system with 0.5% polymer 102, incubation 3 h): 11100 ng/mL
- Concentration of the target in the solution measured after different incubation time ([2]; binary system with 0.5% polymer 102, incubation 6 h): 10600 ng/mL
- Concentration of the target in the solution measured after different incubation time ([2]; binary system with 0.5% polymer 103, incubation 0.5 h): 31100 ng/mL
- Concentration of the target in the solution measured after different incubation time ([2]; binary system with 0.5% polymer 103, incubation 3 h): 32200 ng/mL
- Concentration of the target in the solution measured after different incubation time ([2]; binary system with 0.5% polymer 103, incubation 6 h): 31900 ng/mL
- Concentration of the target in the solution measured after different incubation time ([2]; binary system with 0.5% polymer 106, incubation 0.5 h): 49000 ng/mL
- Concentration of the target in the solution measured after different incubation time ([2]; binary system with 0.5% polymer 106, incubation 3 h): 30100 ng/mL
- Concentration of the target in the solution measured after different incubation time ([2]; binary system with 0.5% polymer 106, incubation 6 h): 26300 ng/mL
- Concentration of the target in the solution measured after different incubation time ([2]; binary system with 0.5% polymer 107, incubation 0.5 h): 36400 ng/mL
- Concentration of the target in the solution measured after different incubation time ([2]; binary system with 0.5% polymer 107, incubation 3 h): 35400 ng/mL
- Concentration of the target in the solution measured after different incubation time ([2]; binary system with 0.5% polymer 107, incubation 6 h): 35300 ng/mL
- Concentration of the target in the solution measured after different incubation time ([2]; binary system with 0.5% polymer 110, incubation 0.5 h): 6400 ng/mL
- Concentration of the target in the solution measured after different incubation time ([2]; binary system with 0.5% polymer 110, incubation 3 h): 11100 ng/mL
- Concentration of the target in the solution measured after different incubation time ([2]; binary system with 0.5% polymer 110, incubation 6 h): 4800 ng/mL
- Concentration of guest molecule in solution ([3]; ternary: 0.25% 102L + 0.1% 313): 988100 ng/mL
- Times that in Comparative Example 3 ([3]; ternary: 0.25% 102L + 0.1% 313): 31.9 times
- Concentration of guest molecule in solution ([3]; ternary: 0.25% 102L + 1.0% 313): 352300 ng/mL
- Times that in Comparative Example 3 ([3]; ternary: 0.25% 102L + 1.0% 313): 11.4 times
- Concentration of guest molecule in solution [4]: 31300 ng/mL
Compound: Cc1ccc(-c2cc(C(F)(F)F)nn2-c2ccc(S(N)(=O)=O)cc2)cc1 [Celecoxib]
- Concentration in the solution [5]: 109000 ng/mL
